Assay results taken from patent US9434764B2, “Skin care compositions and methods comprising selective agonists of melanocortin 1 receptor” (University of Cincinnati, priority 2012, dated 2016).
Entries after “also recorded” stand apart in the source; their conditions may differ.

Legend:
[1] = molecular target: T1, MC1R (Homo sapiens, UniProt Q01726); assay: Stimulation of cAMP formation in cultured human melanocytes; type: cell-based; parameters: MC1R is expressed on the cell surface of melanocytes; endogenous in cells; host or cells: cultured human melanocytes; conditions: for cAMP compared to 10 nM αMSH: cultured human melanocytes; for potency in stimulating cAMP formation compared to another peptide: in words
T1 sequence (Q01726 whole entry): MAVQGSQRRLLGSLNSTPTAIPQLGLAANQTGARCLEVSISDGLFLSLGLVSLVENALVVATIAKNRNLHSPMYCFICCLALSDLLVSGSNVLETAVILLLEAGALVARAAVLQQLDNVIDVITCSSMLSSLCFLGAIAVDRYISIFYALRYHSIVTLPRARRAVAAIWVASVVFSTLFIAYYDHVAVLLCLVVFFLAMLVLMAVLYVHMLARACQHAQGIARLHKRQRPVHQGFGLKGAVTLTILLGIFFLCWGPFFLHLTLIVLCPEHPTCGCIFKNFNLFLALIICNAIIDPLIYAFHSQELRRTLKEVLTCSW
Method: Peptides were tested on cultured human melanocytes for their capacity to activate MC1R, as measured by stimulating cAMP formation. After 45 minutes of treatment with different concentrations of peptides, cAMP levels were measured using a I^125-labeled radioimmunoassay kit.
(§1) Peptides were tested as described in Example 4 above on cultured human melanocytes for their capacity to activate MC1R, as measured by stimulating cAMP formation, and for their capacity for stimulating tyrosinase activity, the rate-limiting enzyme for melanin synthesis. The tested peptides were synthesized according to the formula: Ar(CH2)mX^1—X^2—CO—X^3—X^4—X^5-(Trp)n-NX^6R wherein X^1 and X^2 are absent, X^3 is His, X^5 is Arg, and X^6 is H. X^4 amino acids were in the D-stereoisomer form, unless otherwise noted.

[2] = tested on: tyrosinase activity; assay: Stimulation of tyrosinase activity in cultured human melanocytes; type: cell-based; conditions: for TA (tyrosinase activity) compared to 10 nM αMSH: cultured human melanocytes; for effect on tyrosinase activity compared to another peptide / concentration at which significant stimulation of tyrosinase activity begins: 6-day treatment; for effect on tyrosinase activity compared to another peptide: in words
Method: Peptides were tested on cultured human melanocytes for their capacity for stimulating tyrosinase activity, the rate-limiting enzyme for melanin synthesis. Melanocytes were treated every other day, for a total of 6 days, with increasing concentrations of peptides. Medium containing H^3-tyrosine, the substrate for tyrosinase, was added to melanocytes 24 hours before the end of the 6-day treatment. Tyrosinase activity was measured by determining the amount of ^3H2O generated as […] is catalyzed by tyrosinase for melanin synthesis.
as §1

[3] = molecular target: T1, MC1R; assay: cAMP stimulation in heterologous cells expressing human MC1R; type: cell-based; parameters: expressed in transfected cells; conditions: for EC50: cAMP, heterologous cells; for potency in activation of MC1R compared to MT-II: in words
Method: (§2) Receptor selectivity of peptide agonists for hMC1R was determined by stimulation of cAMP in heterologous cells expressing different human melanocortin receptors (MC1R, MC3R, MC4R, and MC5R).

[4] = molecular target: T2, hMC5R (Homo sapiens, UniProt P33032); assay: cAMP stimulation in heterologous cells expressing human MC5R; type: cell-based; conditions: for EC50: cAMP, heterologous cells; for binding of MC5R: in words
T2 construct: expressed in transfected cells
T2 sequence (P33032 whole entry): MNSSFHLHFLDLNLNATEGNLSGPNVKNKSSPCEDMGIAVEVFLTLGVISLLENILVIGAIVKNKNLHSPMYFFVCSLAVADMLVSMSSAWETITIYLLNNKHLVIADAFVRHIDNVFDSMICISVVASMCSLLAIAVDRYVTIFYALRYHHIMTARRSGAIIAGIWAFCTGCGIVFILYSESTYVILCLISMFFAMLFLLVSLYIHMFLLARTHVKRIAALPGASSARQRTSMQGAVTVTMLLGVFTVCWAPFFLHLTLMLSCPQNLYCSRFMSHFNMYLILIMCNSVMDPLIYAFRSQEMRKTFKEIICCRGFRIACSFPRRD
Method: as §2

[5] = tested on: UV-irradiated human melanocytes; assay: Repair of UV-induced cyclobutane pyrimidine dimers (CPD) in human melanocytes; type: cell-based; conditions: for CPD removal at 1 nM compared to 10 nM α-MSH: 1 nM peptide, 48 hours post UV
Method: To investigate the effects of peptides on the repair of UV-induced DNA damage, levels of cyclobutane pyrimidine dimers (CPD), the major form of DNA photoproducts, were measured in UV-irradiated human melanocytes with or without peptide treatment. Melanocytes were pretreated with the peptides for 4 days prior to, and for 48 hours post UV exposure, harvested, immunostained by a specific antibody for CPD, and analyzed by flow cytometry.

[6] = molecular target: T3, hMC3R (Homo sapiens, UniProt P41968); assay: cAMP stimulation in heterologous cells expressing human MC3R; type: cell-based; conditions: for EC50: cAMP, heterologous cells; for binding of MC3R: in words
T3 construct: expressed in transfected cells
T3 sequence (P41968 whole entry): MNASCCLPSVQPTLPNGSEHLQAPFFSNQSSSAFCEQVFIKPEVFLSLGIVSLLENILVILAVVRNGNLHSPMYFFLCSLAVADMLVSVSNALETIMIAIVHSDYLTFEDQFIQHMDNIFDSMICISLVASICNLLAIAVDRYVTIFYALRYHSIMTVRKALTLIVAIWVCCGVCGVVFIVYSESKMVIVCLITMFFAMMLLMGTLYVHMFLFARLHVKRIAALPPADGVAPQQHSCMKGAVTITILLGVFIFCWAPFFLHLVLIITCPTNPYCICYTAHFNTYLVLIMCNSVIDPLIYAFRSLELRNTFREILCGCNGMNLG
Method: as §2

[7] = tested on: UV-irradiated human melanocytes; assay: Repair of UV-induced 8-oxodG in human melanocytes; type: cell-based
Method: To investigate the effects of peptides on repair of UV-induced DNA damage, levels of 8-oxodG, a major form of oxidative DNA damage, were measured in UV-irradiated human melanocytes with or without peptide treatment. […] Fluorescence intensity, which correlates with the amount of DNA damage, was quantified using ImagJ software.

[8] = molecular target: T4, hMC4R (Homo sapiens, UniProt P32245); assay: cAMP stimulation in heterologous cells expressing human MC4R; type: cell-based; conditions: for EC50: cAMP, heterologous cells
T4 construct: expressed in transfected cells
T4 sequence (P32245 whole entry): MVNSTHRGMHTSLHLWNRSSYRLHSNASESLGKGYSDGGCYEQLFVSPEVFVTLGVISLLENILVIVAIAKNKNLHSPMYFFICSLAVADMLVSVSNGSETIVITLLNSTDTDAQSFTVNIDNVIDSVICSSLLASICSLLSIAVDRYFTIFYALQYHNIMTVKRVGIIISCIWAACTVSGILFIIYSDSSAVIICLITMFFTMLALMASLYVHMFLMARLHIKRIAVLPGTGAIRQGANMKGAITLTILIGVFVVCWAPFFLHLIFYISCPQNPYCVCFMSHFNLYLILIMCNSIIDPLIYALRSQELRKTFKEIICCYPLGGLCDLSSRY
Method: as §2

[9] = Peptide storage stability by HPLC; type: physicochemical; conditions: lyophilized, open air, room temperature, 4 months
Method: LK-513 (Ph(CH2)3CO-His-(D-4-Bip)-Arg-NHMe) was tested for stability and degradation over a storage period. The peptide was stored in a lyophilized form in open air at room temperature for 4 months. After 4 months, HPLC was performed on a test sample of the peptide in order to measure degradation, using standard methods (FIG. 1). […] Without being bound by theory, it is believed that the enhanced stability is a product of the absence of amide bonds between natural L-L-amino acids in the tripeptides and the existence of only one amide bond between natural amino acids in the tetrapeptides (Arg-Trp). Amide bonds between non-natural D- and natural L-amino acids are less prone to chemical and enzymatic hydrolysis, as evidenced by the FIG. 1. Further, the bulk and hydrophobicity of the X4 amino acid (D-Phe or a bulky hydrophobic analog thereof, such as D-4-Bip in the case of LK-513) shield the polar amid bonds of the peptide from chemical and enzymatic degradation.

[10] = tested on: mouse MCRs; conditions: in words; cited from earlier work
[11] = tested on: human melanocytes; assay: Potency in human melanocytes; type: cell-based; conditions: in words
From the text: Satyanarayanajois S. D., et al., Conformations of end-capped melanocortin agonists RCO-X-Z-Arg-Trp-NH2 by 2D-NMR, CD and computations, Peptides Breaking Away: Proceedings of the Twenty-First American Peptide Association 384 (2009). […] Ruwe A. R. et al., Semi-rigid tripeptide agonists of melanocortin receptors, Bioorg. Med. Chem. Lett. 19(17): 5176-81 (2009). […] Thus, while not desiring to be bound by theory, it is believed that the conformational restraints favorable for longer peptides may be unfavorable for shorter MC1R agonists, including the Formula I and Formula II peptides disclosed herein.

In the case of “3,4-O(CH2)2C6H4CH2CO-His-(D-4-FPhe)-Arg-Trp-NH2 [LK 210P]”, the “cAMP compared to 10 nM αMSH” value [1] is reported as “≧”.
In the case of “4-FC6H4CH2CO-His-(D-4-FPhe)-Arg-Trp-NH2 [LK 205P]”, the “TA (tyrosinase activity) compared to 10 nM αMSH” value (from here on “TA … compared to 10 nM αMSH”) [2] is reported as “≧” and the “cAMP compared to 10 nM αMSH” value [1] is reported as “≦”.
For `N=C(N)NCCC[C@H](NC(=O)[C@@H](Cc1ccccc1)NC(=O)[C@H](Cc1c[nH]cn1)NC(=O)CCCc1ccccc1)C(=O)N[C@@H](Cc1c[nH]c2ccccc12)C(N)=O` [LK-184, Ph(CH2)3CO-His-(D-Phe)-Arg-Trp-NH2], the “effect on tyrosinase activity compared to another peptide” value (from here on “effect … compared to another peptide”) ([2]; human melanocytes) was “comparable effects in tyrosinase activity”, the EC50 [3] was 0.00019 µM and the EC50 [4] was 0.262 µM. The “concentration giving maximal cAMP” value ([1]; human melanocytes, 45 minutes of treatment) was 10 nM, the “CPD removal at 1 nM compared to 10 nM α-MSH” value [5] was “same effect at 1 nM on CPD removal as 10 nM α-MSH” and the EC50 [6] was 0.0227 µM.
In the case of `N=C(N)NCCC[C@H](NC(=O)[C@@H](Cc1cccc2ccccc12)NC(=O)[C@H](Cc1c[nH]cn1)NC(=O)CCCc1ccccc1)C(=O)N[C@@H](Cc1c[nH]c2ccccc12)C(N)=O` [LK-467, Ph(CH2)3CO-His-(D-1-Nal)-Arg-Trp-NH2], the “effect … compared to another peptide” value ([2]; human melanocytes) is reported as “comparable effects in tyrosinase activity”, the “potency compared to α-MSH in activating MC1R and stimulating melanogenesis” value ([2]; human melanocytes, tyrosinase activity) is reported as “at least 100 times” and the “reduction of 8-oxodG levels compared to LK-184” value ([7]; 24 hours after UV exposure) is reported as “as effective as LK-184”. The EC50 [3] was 0.00034 µM, the EC50 [4] was 0.122 µM and the “potency in stimulating cAMP formation compared to another peptide” value (“potency … compared to another peptide” for short) ([1]; human melanocytes) was “more potent than LK-184”. The “CPD removal at 1 nM compared to 10 nM α-MSH” value [5] was “same effect at 1 nM on CPD removal as 10 nM α-MSH”, the “reduction of CPD levels compared to LK-184” value ([5]; 48 hours after UV exposure) was “as effective as LK-184” and the EC50 [6] was 0.0324 µM. For the same compound, the EC50 [8] was 0.0181 µM and the “potency at hMC4R compared to LK-184” value ([8]; in words) was “about ten times less potent”.
For `N=C(N)NCCC[C@H](NC(=O)[C@@H](Cc1ccc(-c2ccccc2)cc1)NC(=O)[C@H](Cc1c[nH]cn1)NC(=O)CCCc1ccccc1)C(N)=O` [LK-511, Ph(CH2)3CO-His-(D-4-Bip)-Arg-NH2], the “TA … compared to 10 nM αMSH” value [2] was “<”, the “concentration at which significant stimulation of tyrosinase activity begins” value ([2]; human melanocytes) was 1 nM and the EC50 [3] was 0.00146 µM. For the same compound, the “potency in activation of MC1R compared to MT-II” value (“potency … compared to MT-II” below) [3] was “about as potent as MT-II”, the EC50 [4] was greater than 10 µM and the “binding of MC5R” value [4] was “do not bind”. For the same compound, the “potency … compared to another peptide” value ([1]; human melanocytes) was “about ten times less potent than α-MSH”, the EC50 [6] was greater than 10 µM and the “binding of MC3R” value [6] was “do not bind”. For the same compound, the EC50 [8] was greater than 10 µM and the “binding of MC4R” value ([8]; in words) was “do not bind”.
With `CNC(=O)[C@H](CCCNC(=N)N)NC(=O)[C@@H](Cc1ccc(-c2ccccc2)cc1)NC(=O)[C@H](Cc1c[nH]cn1)NC(=O)CCCc1ccccc1` [LK-513, Ph(CH2)3CO-His-(D-4-Bip)-Arg-NHMe] the “TA … compared to 10 nM αMSH” value [2] was “<”, the “concentration at which significant stimulation of tyrosinase activity begins” value ([2]; human melanocytes) was 1 nM and the EC50 [3] was 0.00327 µM. For the same compound, the “potency … compared to MT-II” value [3] was “about as potent as MT-II”, the EC50 [4] was greater than 10 µM and the “binding of MC5R” value [4] was “do not bind”. The “stability and degradation by HPLC” value [9] was “highly stable and resistant to degradation, showing only a single HPLC peak; also recorded: highly stable and substantially free of degradation”, the “potency … compared to another peptide” value ([1]; human melanocytes) was “about ten times less potent than α-MSH” and the EC50 [6] was greater than 10 µM. For the same compound, the “binding of MC3R” value [6] was “do not bind”, the EC50 [8] was greater than 10 µM and the “binding of MC4R” value ([8]; in words) was “do not bind”.
For `CC(C)(C)c1ccc(C[C@@H](NC(=O)[C@H](Cc2c[nH]cn2)NC(=O)CCCc2ccccc2)C(=O)N[C@@H](CCCNC(=N)N)C(N)=O)cc1` [LK-514, Ph(CH2)3CO-His-(D-4-tBuPhe)-Arg-NH2], the “TA … compared to 10 nM αMSH” value [2] was “<”, the “concentration at which significant stimulation of tyrosinase activity begins” value ([2]; human melanocytes) was 1 nM and the “effect … compared to another peptide” value ([2]; human melanocytes) was “the most effective”. For the same compound, the “reduction of 8-oxodG levels at 100 nM compared to 1 nM α-MSH” value ([7]; 100 nM peptide, 24 hours post UV) was “greater effect than 1 nM α-MSH”, the EC50 [3] was 0.00365 µM and the “potency … compared to MT-II” value [3] was “about as potent as MT-II”. The EC50 [4] was greater than 10 µM, the “binding of MC5R” value [4] was “do not bind” and the “potency … compared to another peptide” value ([1]; human melanocytes) was “about ten times less potent than α-MSH; also recorded: more potent than LK-511 or 513; also recorded: more potent than LK-511 or LK-513”. For the same compound, the EC50 [6] was greater than 10 µM, the “binding of MC3R” value [6] was “do not bind” and the EC50 [8] was greater than 10 µM. The “binding of MC4R” value ([8]; in words) was “do not bind”.
In the case of “Ph(CH2)3CO-His-(D-1-Nal)-Arg-NH2 [LK 510P]”, the “TA … compared to 10 nM αMSH” value [2] is reported as “NR (NR = No Response/inactive at 10 nM)”.
In the case of “Ph(CH2)3CO-His-(D-1-Nal)-Arg-NHMe [LK 512P]”, the “TA … compared to 10 nM αMSH” value [2] is reported as “NR (NR = No Response/inactive at 10 nM)”.
In the case of “Ph(CH2)3CO-His-(D-2-Nal)-Arg-NH2 [LK 515P]”, the “TA … compared to 10 nM αMSH” value [2] is reported as “<<”.
In the case of “Ph(CH2)3CO-His-(D-2-Nal)-Arg-NHMe [LK 517P]”, the “TA … compared to 10 nM αMSH” value [2] is reported as “<<<”.
With “Ph(CH2)3CO-His-(D-2-Nal)-Arg-Trp-NH2 [LK 468P]” the “cAMP compared to 10 nM αMSH” value [1] was “≦”.
For “Ph(CH2)3CO-His-(D-4-tBuPhe)-Arg-NHMe [LK 516P]”, the “TA … compared to 10 nM αMSH” value [2] was “<<”.
In the case of “Ph(CH2)3CO-His-(D-Phe)-Arg-Trp-NHEt [LK-487]”, the “effect … compared to another peptide” value ([2]; human melanocytes) is reported as “equipotent to LK-467” and the “potency … compared to another peptide” value ([1]; human melanocytes) is reported as “equipotent to LK-467”.
In the case of trans-4-HOC6H4CH═CHCO-His-D-Phe-Arg-NH2, the “MC1R selectivity and potency at mouse MCRs compared to LK-394” value [10] is given as “moderately increased MC1R selectivity and potency” and the “potency in human melanocytes” value [11] is given as “less potent”.
